IC50 and Kd data for 11 compounds are collected here from patent US20120129811A1, “TRICYCLIC INHIBITORS OF PRO-MATRIX METALLOPROTEINASE ACTIVATION” (priority 2010, published 2012).

Where a name gives a salt, the structure may show the parent alone. Where only a bound is given, the exact number is not on record here.

The target in test [1] is T1, full-length proMMP9(1-707) activation by catalytic MMP3 (Homo sapiens, UniProt P14780, R574P).
T1 construct: made in house; host or cells: proMMP9: HEK293 (secreted); MMP3: E. coli
T1 sequence (P14780 20-707 R574P): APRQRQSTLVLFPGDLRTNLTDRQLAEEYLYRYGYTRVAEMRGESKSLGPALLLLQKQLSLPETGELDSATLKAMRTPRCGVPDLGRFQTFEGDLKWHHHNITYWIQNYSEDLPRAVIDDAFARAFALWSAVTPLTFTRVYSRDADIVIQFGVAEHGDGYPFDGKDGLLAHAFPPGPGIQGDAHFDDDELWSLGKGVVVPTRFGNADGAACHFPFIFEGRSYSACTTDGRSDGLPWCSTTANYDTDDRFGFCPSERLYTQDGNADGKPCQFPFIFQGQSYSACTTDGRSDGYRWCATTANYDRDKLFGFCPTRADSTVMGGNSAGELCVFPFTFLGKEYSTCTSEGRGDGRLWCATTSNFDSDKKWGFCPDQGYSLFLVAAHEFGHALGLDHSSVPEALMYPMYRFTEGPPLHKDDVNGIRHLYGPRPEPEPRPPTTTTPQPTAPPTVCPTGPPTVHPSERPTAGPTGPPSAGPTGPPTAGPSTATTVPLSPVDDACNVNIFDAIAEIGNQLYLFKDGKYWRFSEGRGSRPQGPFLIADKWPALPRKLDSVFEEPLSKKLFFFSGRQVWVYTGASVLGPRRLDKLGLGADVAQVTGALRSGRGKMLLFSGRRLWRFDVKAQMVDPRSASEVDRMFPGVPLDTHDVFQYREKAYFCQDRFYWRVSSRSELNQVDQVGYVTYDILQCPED
As to the kind of experiment: proMMP9/MMP3 P126 Activation Assay. The format is biochemical. How it is done:
proMMP9/MMP3 P126 Activation Assay
The reaction volume was 50 μL. […] Reactivity of residual MMP3 towards P-126 substrate was minimal under these conditions.

For test [2], the target named is T2, proMMP9(67-444;ΔFnII) (SEQ ID NO:5) (Homo sapiens, UniProt P14780, DEL216-390).
T2 construct: start methionine (N); made in house; host or cells: E. coli BL21(DE3) RIL
T2 sequence (P14780 with tags, fused parts or gaps DEL216-390): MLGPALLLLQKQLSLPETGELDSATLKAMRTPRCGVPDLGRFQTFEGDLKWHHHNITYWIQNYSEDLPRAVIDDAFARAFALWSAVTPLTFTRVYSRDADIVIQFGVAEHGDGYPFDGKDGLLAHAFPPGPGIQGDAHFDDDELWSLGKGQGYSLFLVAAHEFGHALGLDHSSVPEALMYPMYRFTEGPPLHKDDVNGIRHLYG
The test is described as follows: ThermoFluor binding assay with proMMP9(67-444;ΔFnII). The gist of the method:
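Thermal shift of 3.5 μM proMMP9(67-444;ΔFnII), desalted beforehand, with 50 μM 1,8-ANS in 50 mM HEPES pH 7.0, 100 mM NaCl, 2.5 mM MgCl2, 300 μM CaCl2, 0.001% Tween-20. Heated 40–90 °C at 1 °C/min, fluorescence read at 500 nm; binding fitted from Tm shifts using DSC- and ThermoFluor-derived unfolding parameters.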

For test [3], the target named is T3, proMMP9(20-445;ΔFnII) (SEQ ID NO:6) (Homo sapiens, UniProt P14780, DEL216-390).
T3 construct: start methionine (N); made in house; host or cells: E. coli BL21(DE3) RIL
T3 sequence (P14780 with tags, fused parts or gaps DEL216-390): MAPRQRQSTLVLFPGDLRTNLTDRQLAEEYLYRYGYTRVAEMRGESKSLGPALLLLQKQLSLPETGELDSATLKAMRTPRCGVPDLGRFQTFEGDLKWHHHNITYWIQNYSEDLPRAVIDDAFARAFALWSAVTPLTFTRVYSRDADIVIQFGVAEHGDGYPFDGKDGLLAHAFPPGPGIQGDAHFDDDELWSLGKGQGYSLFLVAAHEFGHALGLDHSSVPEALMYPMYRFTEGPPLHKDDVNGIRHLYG
The test is described as follows: ThermoFluor binding assay with proMMP9(20-445;ΔFnII). Summed up:
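Protein thermal stability was measured with 2.8 μM proMMP9(20-445;ΔFnII) and 50 μM 1,8-ANS in 50 mM HEPES pH 7.0, 100 mM NaCl, 0.001% Tween-20, 2.5 mM MgCl2, 300 μM CaCl2, across serial compound dilutions. Samples were heated 40–90° C at 1° C/min with fluorescence read at 500 nm. Tm was fitted, and binding was derived from thermodynamic parameters obtained by DSC and ThermoFluor.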

Test [4] has as its target T4, proMMP13(1-268) (SEQ ID NO:7) (Homo sapiens, UniProt P45452).
T4 construct: 6xHis (C); made in house; host or cells: HEK293 (transient, secreted)
The test is described as follows: ThermoFluor binding assay with proMMP13(1-268). Summed up:
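Thermal shift of desalted proMMP13(1-268) at 3.5 μM final, in 50 mM HEPES pH 7.0, 100 mM NaCl, 0.001% Tween-20, 2.5 mM MgCl2, 300 μM CaCl2, with 25 μM 1,8-ANS. Serially diluted compounds heated 40–90° C. at 1° C./min, fluorescence read at 500±25 nm. Tm fitted; binding modeled using DSC-derived thermodynamic parameters.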

For test [5], the target named is T5, proMMP13(1-268) activation by plasmin (Homo sapiens, UniProt P45452).
T5 construct: 6xHis (C); made in house; host or cells: HEK293 (proMMP13)
The test is described as follows: ProMMP13/Plasmin P126 Activation Assay. The format is biochemical. The procedure:
ProMMP13/Plasmin P126 Activation Assay
On the day of assay, proMMP13(1-268) (SEQ ID NO:7) purified from HEK293 cells and plasmin were diluted to 160 nM and 320 nM, respectively, in assay buffer. The reaction volume was 50 μL. […] The plate was sealed and incubated for 40 min at 37° C. […] Plasmin was not reactive towards P-126 substrate under these conditions.

Regarding `COc1ccc(F)cc1Nc1nc2c(ccc3c2ncn3C)s1` [Example 57, (5-Fluoro-2-methoxy-phenyl)-(6-methyl-6H-imidazo[4′,5′:3,4]benzo[2,1-d]thiazol-2-yl)-amine.HCl], the concentration for half-maximal inhibition (IC50) in test [1] was 70 nM; in test [5], around 6000 nM. Moreover, the Kd was 35 nM in test [2], 230 nM in test [3] and 2800 nM in test [4].
With `COc1ccc(S(C)(=O)=O)cc1Nc1nc2c(ccc3c2cnn3C)s1` [Example 92, (5-Methanesulfonyl-2-methoxy-phenyl)-(6-methyl-6H-3-thia-1,6,7-triaza-as-indacen-2-yl)-amine.HCl], the values for the IC50 in test [1] and in test [5] were 130 nM and around 6000 nM, respectively. For the same compound, the results for the dissociation constant (Kd) in test [2] and in test [3] were 410 nM and 1100 nM, respectively.
With `CC(C)Oc1ccc(C(N)=O)cc1Nc1nc2c(ccc3c2ncn3C)s1` [Example 22, 4-Isopropoxy-3-(6-methyl-6H-imidazo[4′,5′:3,4]benzo[2,1-d]thiazol-2-ylamino)-benzamide.HCl], the IC50 in test [1] turned out to be 92 nM; in test [5], 1900 nM. Also, the Kd in test [2] came out at 100 nM; in test [3] it was 170 nM; in test [4] it was 810 nM.
Taken in the same sequence, the figures for `CC(C)Oc1ccc(C(N)=O)cc1Nc1nc2c(ccc3ccncc32)s1` [Example 89, 4-Isopropoxy-3-(thiazolo[5,4-h]isoquinolin-2-ylamino)-benzamide.TFA] were 330 nM, 2800 nM, 780 nM, 3100 nM and 6800 nM.
The corresponding values for `COc1cc(C(N)=O)ccc1Nc1nc2c(ccc3c2ncn3C)s1` [Example 51, 3-Methoxy-4-(6-methyl-6H-imidazo[4′,5′:3,4]benzo[2,1-d]thiazol-2-ylamino)-benzamide.HCl] are 200 nM, above 20000 nM, 400 nM, 3100 nM and 8300 nM.
Regarding `COc1ccc(C(N)=O)cc1Nc1nc2c(ccc3c2cnn3C)s1` [Example 95, 4-Methoxy-3-(6-methyl-6H-3-thia-1,6,7-triaza-as-indacen-2-ylamino)-benzamide.HCl], the IC50 in test [1] was 170 nM; in test [5], 1800 nM. Besides, the Kd is 360 nM in test [2] and 190 nM in test [3].
In the case of `CC(C)Oc1ccc(C(N)=O)cc1Nc1nc2c(ccc3cnccc32)s1` [Example 90, 4-Isopropoxy-3-(thiazolo[4,5-f]isoquinolin-2-ylamino)-benzamide.TFA], the IC50 in test [1] was found to be 200 nM; in test [5], 2500 nM. In addition, the Kd stood at 3000 nM in test [2], 280 nM in test [3] and 2700 nM in test [4].
The corresponding values for `CC(C)Oc1ccc(C(N)=O)cc1Nc1nc2c(ccc3c2cnn3C)s1` [Example 30, 4-Isopropoxy-3-(6-methyl-6H-3-thia-1,6,7-triaza-as-indacen-2-ylamino)-benzamide.HCl] are 190 nM, 4500 nM, 310 nM, 120 nM and 930 nM.
Consider `CCn1cnc2ccc3sc(Nc4cc(C(N)=O)ccc4OC(C)C)nc3c21` [Example 33, 3-(8-Ethyl-8H-imidazo[4′,5′:3,4]-benzo[2,1-d]thiazol-2-ylamino)-4-isopropoxy-benzamide.HCl], for which the IC50 in test [1] is 100 nM; in test [5], 1100 nM. Also, the Kd in test [2] is 490 nM; in test [3] it was 86 nM; in test [4], 580 nM.
In test [1], `CC(C)Oc1ccc(C(N)=O)cc1Nc1nc2c(ccc3[nH]c(CO)nc32)s1` [Example 21, 3-(7-Hydroxymethyl-6H-imidazo[4′,5′:3,4]-benzo[2,1-d]thiazol-2-ylamino)-4-isopropoxy-benzamide.HCl] displayed an IC50 of 500 nM. In addition, the figures for the Kd in test [2], in test [3] and in test [4] were 330 nM, 410 nM and 3500 nM, respectively.
In the case of `COc1ccccc1Nc1nc2c(s1)CCCc1nc(N)sc1-2` [Example 14, N^8-(2-Methoxy-phenyl)-5,6-dihydro-4H-1,7-dithia-3,9-diaza-cyclopenta[e]azulene-2,8-diamine.TFA], the IC50 in test [1] stood at 1100 nM. The Kd in test [2] amounted to 550 nM; in test [3], 2400 nM; in test [4], 20000 nM.
